A short description of data set [1]: MTLP peptide stability in serum over time (HPLC-UV). It counts as in vitro ADME, mouse. Particulars: 37° C.; for stability in mouse serum (recovery by HPLC-UV): 1 mg/mL peptide + equal volume mouse serum, 10-120 min. How it is done: The MTLP peptide solutions were prepared at 1 mg/mL and 20 μL aliquots placed in tubes. To one set of tubes an equal volume of mouse serum was added and to a second set 0.9% saline solution was added as negative a control. The tubes were incubated at 37° C. A control and a sample tube were removed at various timepoints (10, 30, 60 and 120 min) and any reaction quenched using 70:30 acetonitrile:water (160 μL). Each quenched sample was then analysed by HPLC-UV at 220 nm with a C18 column (5 μm, 300Å, 250×4.6 mm id) for 45 minutes. Mobile phase A was 10:90 acetonitrile: 0.1% trifluoroacetic acid in water and mobile phase B was 0.1% trifluoroacetic acid in acetonitrile.

Data set [2] deals with KB cells. Kind of data set: Effect of lysomotrophic agent on PPAA-mediated transfection. The class given is cell-based. To be noted: added half an hour prior to LPD. As for the experimental part: Lysomotrophic agent, either chloroquine (an anti-malarial drug, weak base protonated in endosome) or bafilomycin A (a specific ATPase inhibitor which reduces the amount of protons entering the endosome), capable of preventing endosomal acidification, were added in varying amounts to the transfection mixture half and hour prior to LPD addition to the cells.

In a further data set the test system is HepSK1 cells. Kind of data set: In vitro transfection (luciferase expression). The class given is cell-based, human. To be noted: Hep-SK 1 (non-ASGPR), 100 μM ligand, 1 μg DNA. As for the experimental part:
(§1) For in vitro cell testing of the galactosylated peptides, the following cell lines were used: HepG2 (ATCC, Manassas, Va.): Hepatocarcinoma cell line expressing the asialyglycoprotein (ASGP) receptor. […] These two cell lines were tested for the presence of the ASGP receptor by westen blotting with an anti-asialoglycoprotein receptor antibody from Calbiochem (Nottingham, UK). This confirmed the presence of the receptor in HepG2 cells and the absence of the receptor from Hep-SK1 cells (data not shown).
(§2) The formulations were incubated with the cells for 4 h, at which point the formulations were aspirated and fresh serum containing complete medium was added to the cells. Cells were harvested 48 h post transfection and were assayed for total cell protein expression and luciferase reporter gene expression. […] Thus, multifunctional targeting factors such as galactose-Elan094 (SEQ ID NO:6) can increase transfection activity over a single fimctional targeting factor.
In vitro cell transfections were carried out as described supra in a number of cell types. […] The results for two different cell types, a human liver cell line (HepSK1) and a human breast cell line (MDA-MB-231), are shown in Tables 7 and 8.

In a further data set the test system is HepG2 cells. In words: In vitro transfection (luciferase expression). The class given is cell-based. Particulars: for transfection with DC-Chol:DOPE LPDs containing ligand: HepG2 (ASGPR bearing), 100 μM ligand, 1 μg DNA. How it is done: 16-24 hr prior to transfection, 5×10^4 cells (MDA-MB-231, LL/2 or HepG-2 (ATCC, Manassas, Va.)) in 500 μl/well of appropriate media (ATCC catalog describes appropriate media for each cell type) containing 10% FBS were seeded in a 48 well plate (Costar, Coming, N.Y.) and incubated overnight at 37° C. in 5% or 10% CO2. The following day, the media was removed and replaced with 500 μl of fresh serum-free media. […] After transfection, luciferase activity was assayed as described (Promega Luciferase Assay Kit, Cat. No. E1501, Madison, Wis.). Briefly, the cell culture media was removed and replaced by fresh media containing 10% FBS, and the cells were incubated at 37° C. in 5% or 10% CO2 for a further 48 h. Each well was washed with 1 ml PBS 0.095 M pH7.4 (Biowhittaker, Walkersville, Md.) and suspended in 200 μl of 1× luciferase reporter buffer (RLB) (Promega, Madison, Wis.). The cells were then subject to 3 cycles of freeze/thaw at −70° C./37° C., respectively. Cells were harvested and spun for 10 min at 14,000 rpm. 20 μl of the supernatant was assayed for luciferase activity by addition of 100 μl of luciferase substrate (Promega, Madison, Wis.), followed by a 10 sec incubation time at room temperature before luminescence relative units were measured using a Berthold (Aliquippa, Pa. autolumat B953 luminometer. The total protein concentration per sample was determined using a commercial kit of Coomassie plus dye (Pierce, Rockford, Ill.).
as §1, §2

Data set [3] addresses LHRH receptor on MDA-MB-231, SKOV3-IP1 and H-69 cells (human) (UniProt P30968). Kind of data set: cell-based or functional assay.
For data set [4], the system named is KB cells. Kind of data set: In vitro transfection (luciferase expression). It counts as cell-based. To be noted: 1 μg DNA/well. As for the experimental part:
The following day, the media was removed and replaced with 500 μl of fresh serum-free media.

The next data set relates to MDA-MB-231 cells. Kind of data set: Competition assays of ligand-mediated transfection. To be noted: 0.1 μg DNA/well; for effect of 1000-fold excess of free peptide on DSPE-PEG5K-RGD mediated transfection: 10 mol % DSPE-PEG5K-RGD LPD. The class given is cell-based, human. How it is done: Three competitions assays were performed using MDA-MB-231 cells in order to assess specificity of transfection-mediated-[…] (SEQ ID NO:10) or DSPE-PEG5K-RGD (SEQ ID NO:11). Transfections were performed as described above except that the culture media was supplemented with free LHRH or RGD peptides, or antibody against the LHRH or the integrin receptor as competition agents. 10 mol % pegylated lipid or targeting factor-pegylated lipid conjugate was used for each experiment.
The first competition assay was performed using 1 μg DNA/well. This DNA concentration required a high concentration of free LHRH to achieve a 100 fold excess of free LHRH which was toxic for the cells. Similarly, with the RGD formulation, this DNA concentration required a high concentration of free RGD in order to achieve 100 fold excess of free RGD (3.25 μl of dansyl-labeled RGD ((Integrated Biomolecule Corporation, Tucson, Ariz.) from a solution at 5 mg/ml in H2O) which was toxic for the cells.
In order to decrease LHRH associated toxicity, a second competition assay was performed using 0.1 μg DNA/well (FIGS. 6A and 6B). 0.1 μg DNA/well corresponds to 862.62 ng DSPE-PEG5K-LHRH (SEQ ID NO:10) or 168.6 ng of LHRH/well using a 12 nmol:1 μg lipid:DNA ratio and 10 mol % DSPE-PEG5K-LHRH (SEQ ID NO:10) in the total lipids in the formulation. Transfections were performed as described above. The second competition assay was performed using 17.5 μg/well (5 μl) of anti-LHRH receptor F1G4, and 15 μg/well (50 μl) of anti-LHRH receptor A9E4 from Biogenesis (Kingston, N.H.). The appropriate isotype match antibody (17.5 μg/well), anti-CD3 IgG1K (Pharmingen, San Diego, Calif.), was used as a control. Additionally, a 100-fold and 1000 fold excess of LHRH was tested as a competition agent: the media was supplemented with 6.5 μl or 65 μl of a stock solution of 2.5 mg/ml of [D-Trp]-LHRH from Sigma (St. Louis, Mo.). Moreover, in this particular experiment, 2 anti-LHRH receptor polyclonal serums were tested: 5 μl/well of a rabbit serum anti-LHRH receptor (Biogenesis, Kingston, N.H.) and 50 μl/well sheep serum anti-LHRH receptor (Biogenesis, Kingston, N.H.). The corresponding volumes of control serum were used as an isotype control. Control serums were purchased from Sigma (St. Louis, Mo.).
LPDs were also directly incubated with an anti-LHRH antibody or an isotype control (Anti-IgG) antibody before addition of LPDs to cells in order to block the LHRH molecule on the LPD surface (data not shown). Briefly, 6.67 μl of 1/10 diluted DSPE-PEG5K-LHRH LPDs at 150 μg DNA/ml were mixed with 50 μl of mouse anti-LHRH antibody or control (Dako Corporation, Carpinteria, Calif.) and incubated for 1 h at room temperature prior to transfection as described above. […]

This is an account of results in patent US20050025821A1, “Lipid-comprising drug delivery complexes and methods for their production” (priority 2001, published 2005).

Non-standard residues stand in square brackets, D forms with d. Residues, ends and D or L forms follow the SMILES beside them. No end group written: not given here.

Chain of LHRH receptor on MDA-MB-231, SKOV3-IP1 and H-69 cells (human) (P30968 whole entry): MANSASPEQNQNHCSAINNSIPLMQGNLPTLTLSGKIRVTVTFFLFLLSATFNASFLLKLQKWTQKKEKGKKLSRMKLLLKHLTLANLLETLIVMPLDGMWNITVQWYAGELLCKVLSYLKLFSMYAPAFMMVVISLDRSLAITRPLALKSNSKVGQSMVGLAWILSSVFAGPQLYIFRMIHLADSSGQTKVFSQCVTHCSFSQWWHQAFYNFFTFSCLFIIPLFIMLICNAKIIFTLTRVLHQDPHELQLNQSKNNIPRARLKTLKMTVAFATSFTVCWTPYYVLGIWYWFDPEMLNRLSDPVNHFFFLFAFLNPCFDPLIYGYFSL

As for H-KKKAAAVLLPVLLAAP [ZElan094], in data set [1], the “stability in mouse serum (recovery by HPLC-UV)” value is given as “degrades in mouse serum over 2 hr”, the “ligand still detectable at 30 minutes following incubation in mouse serum” value was “up to 60%” and the “start of degradation in mouse serum” value is reported as above 10 min. Turning to `CCN(CC)CCCC(C)Nc1ccnc2cc(Cl)ccc12` (stereo not shown) [Chloroquine, chloroquine], the “effect on PPAA-mediated transfection” value with KB cells [2] (1600 nM) was “blocked PPAA-mediated transfection”. Take “H2N-KKKAAAVLLPVLLAAPREDL (H-KKKAAAVLLPVLLAAPREDL) [ZElan094R]”: the “transfection with DC-Chol:DOPE LPDs containing ligand” value in the data set with HepSK1 cells is “no increase in transfection”; in the data set on HepG2 cells, “Increased transfection”. The like results for S(Galactose)KKAAAVLLPVLLAAP [GElan094] were, in that order, “no increase in transfection” and “Increased transfection”. In the case of “[D-Trp]-LHRH from Sigma (from UniProt P01148 24-33) (peptide)”, the luciferase expression in MDA-MB-231 cells after transfection with LPDs containing 10 mol % DSPE-PEG5K-LHRH, free LHRH in the medium as competition agent in data set [3] came out at 1000 fold.

As to RRRRRRRH, in the data set on KB cells [4], the “increase in transfection activity when formulated with CHEMS:DOPE compared to peptide-compacted DNA alone” value is 2 fold. With GRGDNP, the “effect of 1000-fold excess of free peptide on DSPE-PEG5K-RGD mediated transfection” value in the data set on MDA-MB-231 cells is “inhibition of transfection activity”.

For GRGESP, the “effect of 1000-fold excess of free peptide on DSPE-PEG5K-RGD mediated transfection” value in the data set with MDA-MB-231 cells was “did not inhibit transfection activity”.

As for `CO/C1=C\C(C)=C\[C@@H](C)[C@@H](O)[C@@H](C)C/C(C)=C/C=C/[C@H](OC)[C@@H]([C@@H](C)[C@@H](O)[C@H](C)[C@@]2(O)C[C@@H](O)[C@H](C)[C@@H](C(C)C)O2)OC1=O` [Bafilomycin A, bafilomycin A], the “effect on PPAA-mediated transfection” value in the data set on KB cells [2] (10 ng/well) is on record as “appeard to block PPAA-mediated transfection”. Take “des-Pro-KKAAAVLLPVLLAAS-Galactose [Elan094G]”: the figures for the “transfection with DC-Chol:DOPE LPDs containing ligand” value in the data set on HepSK1 cells and with HepG2 cells were “no increase in transfection” and “Increased transfection”, respectively. Moreover, the “dose giving optimal transfection” value in the data set with HepG2 cells (DC-chol:DOPE LPDs, dose titration (FIG. 14)) stood at 50 µM. Turning to GRGDSP, the “effect of 1000-fold excess of free peptide on DSPE-PEG5K-RGD mediated transfection” value in the data set on MDA-MB-231 cells is reported as “inhibition of transfection activity”. `CC(C)C[C@@H](NC(=O)[C@@H](CC(C)C)NC(=O)[C@H](NC(=O)[C@H]1CCCN1C(=O)[C@@H](CC(C)C)NC(=O)[C@@H](CC(C)C)NC(=O)[C@H](NC(=O)[C@@H](C)NC(=O)[C@@H](C)NC(=O)[C@@H](CCCCN)NC(=O)[C@@H](CCCCN)NC(=O)[C@H](N)CCCCN)C(C)C)C(C)C)C(=O)N[C@H](C)C(=O)N[C@H](C)C(=O)N1CCC[C@@H]1C(=O)O` [ZElan207, H2N-kkkaavllpvllaap] (H-[dK][dK][dK][dA][dA][dV][dL][dL][dP][dV][dL][dL][dA][dA][dP]-OH; C-terminus assumed): in data set [1], the “stability in mouse serum (recovery by HPLC-UV)” value was “stable in mouse serum up to 2 h”. In the case of “LHRH: free LHRH used as competition agent, [D-Trp]-LHRH from Sigma (QHWSYGLRPG; not fully specified (residue 1, C-terminus); ends and bridges not checked; also: D-Trp, position not given here)”, the “effect of 1000-fold excess of free LHRH on DSPE-PEG5K-LHRH mediated transfection” value in the data set on MDA-MB-231 cells (10 mol % DSPE-PEG5K-LHRH LPD) is reported as “clear inhibition of transfection activity”.
